This note sets out measurements from patent publication US20070155746A1, “NOVEL SUBSTITUTED PYRIDINYLOXY AND PYRIMIDINYLOXY AMIDES USEFUL AS INHIBITORS OF PROTEIN KINASES” (KALYPSYS, INC., priority 2005, published 2007).

Assay type in all cases: biochemical
Assay [1] concerns the target T1, VEGFR2 kinase (Homo sapiens, UniProt P35968).
T1 construct: purchased Invitrogen Inc PV3660
Nature of the assay: In vitro VEGFR2 kinase assay. The method, then:
(§1) In Vitro VEGFR2 and PDGFRP Kinase Assays
(§2) 2.5 μl of ADP Quest assay buffer (DiscoverX Inc., cat. #90-0071) containing 20 ng VEGFR2 kinase (Invitrogen Inc, cat. #PV3660) or 25 ng PDGFRβ kinase (Invitrogen Inc., cat. #P3082) is dispensed to wells of a 1536 multi-well, black solid plate. 60 nl of 100× concentration of test compound in DMSO is dispensed to the well by passive pin transfer and incubated for 10 minutes at room temperature (approx. 22° C.). 2.5 μl of ADP Quest assay buffer containing 0.25 μg of poly Glu:Tyr (4:1) substrate peptide (Upstate Inc., cat. #12-440) and 60 μM ATP is then dispensed and the kinase reaction allowed to incubate at 30° C. for 2 hours. The assay plates are sealed and maintained in a humidified environment. After the 2 hour incubation, 2 μl of ADP Quest assay reagent A, followed by 2 μl of assay reagent B, is added. After an additional 30 minute incubation at room temperature, fluorescence intensity is measured on a Molecular Devices Aquest multi-mode plate reader or other suitable plate reader (fluorescence excitation filter: 530/25 [Peak(nm)/FWHM passband(nm)]; dichroic beamsplitter: 561 nm longpass; fluorescence emission filter: 580/10 [Peak(nm)/FWHM passband(nm)]. The assay measures the conversion of a non-fluoresecent molecule to fluorescent resorufin, which correlates with kinase activity. Negative control activity is measured with DMSO lacking any test compound. The positive control is [N-(3-trifluoromethyl-4-chlorophenyl)-N′-(4-(2-methylcarbamoyl-pyridin-4-yl)oxyphenyl)urea], aka Bay 43-9006. Efficacy is measured as a percentage of positive control activity.

Assay [2] concerns the target T2, PDGFRβ kinase (Homo sapiens, UniProt P09619).
T2 construct: purchased Invitrogen Inc. P3082
Nature of the assay: In vitro PDGFRβ kinase assay. On the procedure: as §1, §2

Assay [3] deals with T3, human B-Raf protein kinase (Homo sapiens, UniProt P15056).
T3 construct: GST (N); purchased Upstate Inc. 14-530 (B-Raf); 14-420 (Mek1)
T3 sequence (P15056 416-766): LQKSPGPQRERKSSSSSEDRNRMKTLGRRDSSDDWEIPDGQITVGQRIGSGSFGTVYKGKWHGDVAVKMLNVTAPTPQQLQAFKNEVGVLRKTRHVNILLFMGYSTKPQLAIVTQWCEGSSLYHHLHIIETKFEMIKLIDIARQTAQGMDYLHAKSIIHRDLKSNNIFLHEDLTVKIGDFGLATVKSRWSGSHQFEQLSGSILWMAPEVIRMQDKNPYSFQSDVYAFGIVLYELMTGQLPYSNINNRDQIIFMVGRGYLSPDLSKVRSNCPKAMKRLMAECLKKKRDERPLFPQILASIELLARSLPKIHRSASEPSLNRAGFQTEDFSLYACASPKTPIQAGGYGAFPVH
Put plainly: In vitro B-Raf/Mek1 composite kinase assay. The method, then: In Vitro B-Raf/Mek1 Composite Kinase Assay
2.5 μl of B-Raf kinase buffer (20 mM MOPS [pH 7.2], 25 mM sodium glycerophosphate, 2 mM EGTA [pH 8.0], 1 mM sodium orthovanadate, 1 mM dithiothreitol, 10 mM MgCl2, 0.03% Brij-35, 0.3 mg/ml bovine serum albumin) containing lng of recombinant, N-terminal GST-tagged human B-Raf protein kinase (Δ1-415, Upstate Inc., cat. #14-530) is dispensed to wells of a 1536 multi-well white solid plate. 60 nl of 100× concentration of test compound in DMSO is dispensed to the well by passive pin transfer and incubated for 15 minutes at room temperature (approx. 22° C.). […] The assay plates are sealed and maintained in a humidified environment. After 2 hours, 2.5 μl of PKLight protein kinase assay reagent (Cambrex, cat. #LT07-501) is dispensed. After an additional 5 minute incubation at room temperature, luminescence activity is measured on a Molecular Devices Analyst multi-mode plate reader or other suitable plate reader. Kinase inhibition results in less ATP depletion, and therefore increased luminescence signal. Negative control activity is measured with DMSO lacking any test compound. The positive control is [N-(3-trifluoromethyl-4-chlorophenyl)-N′-(4-(2-methylcarbamoyl-pyridin-4-yl)oxyphenyl)urea], aka Bay 43-9006. Efficacy is measured as a percentage of positive control activity.

Each structure is given as a SMILES string.

T2 sequence (P09619 33-1106): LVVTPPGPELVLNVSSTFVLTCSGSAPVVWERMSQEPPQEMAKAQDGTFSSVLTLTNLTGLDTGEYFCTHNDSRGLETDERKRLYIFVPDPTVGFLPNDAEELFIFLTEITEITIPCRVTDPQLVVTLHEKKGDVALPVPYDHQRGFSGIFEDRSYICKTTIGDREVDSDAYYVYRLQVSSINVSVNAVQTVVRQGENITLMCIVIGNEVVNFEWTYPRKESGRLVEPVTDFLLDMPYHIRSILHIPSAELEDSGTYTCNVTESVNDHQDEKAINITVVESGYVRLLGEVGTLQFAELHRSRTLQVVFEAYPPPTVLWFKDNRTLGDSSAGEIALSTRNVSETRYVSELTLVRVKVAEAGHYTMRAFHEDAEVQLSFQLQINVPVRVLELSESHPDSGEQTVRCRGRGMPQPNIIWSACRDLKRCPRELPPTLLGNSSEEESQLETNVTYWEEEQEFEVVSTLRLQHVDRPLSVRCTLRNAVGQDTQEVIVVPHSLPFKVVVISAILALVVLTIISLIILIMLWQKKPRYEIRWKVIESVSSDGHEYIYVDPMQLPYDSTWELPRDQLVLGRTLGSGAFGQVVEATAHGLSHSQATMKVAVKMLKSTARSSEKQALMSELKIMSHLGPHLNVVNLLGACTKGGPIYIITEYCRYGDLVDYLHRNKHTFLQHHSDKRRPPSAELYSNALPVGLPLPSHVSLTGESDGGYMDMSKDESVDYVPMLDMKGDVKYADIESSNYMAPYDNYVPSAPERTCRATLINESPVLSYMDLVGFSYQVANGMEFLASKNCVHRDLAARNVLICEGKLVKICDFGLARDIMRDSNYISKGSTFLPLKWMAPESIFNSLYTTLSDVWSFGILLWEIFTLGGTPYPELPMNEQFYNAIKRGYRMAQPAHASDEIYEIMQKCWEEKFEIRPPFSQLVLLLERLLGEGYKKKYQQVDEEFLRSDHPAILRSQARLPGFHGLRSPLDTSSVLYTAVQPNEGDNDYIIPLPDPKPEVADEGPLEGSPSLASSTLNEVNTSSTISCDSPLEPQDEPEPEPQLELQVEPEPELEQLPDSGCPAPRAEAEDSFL
T1 sequence (P35968 20-1356): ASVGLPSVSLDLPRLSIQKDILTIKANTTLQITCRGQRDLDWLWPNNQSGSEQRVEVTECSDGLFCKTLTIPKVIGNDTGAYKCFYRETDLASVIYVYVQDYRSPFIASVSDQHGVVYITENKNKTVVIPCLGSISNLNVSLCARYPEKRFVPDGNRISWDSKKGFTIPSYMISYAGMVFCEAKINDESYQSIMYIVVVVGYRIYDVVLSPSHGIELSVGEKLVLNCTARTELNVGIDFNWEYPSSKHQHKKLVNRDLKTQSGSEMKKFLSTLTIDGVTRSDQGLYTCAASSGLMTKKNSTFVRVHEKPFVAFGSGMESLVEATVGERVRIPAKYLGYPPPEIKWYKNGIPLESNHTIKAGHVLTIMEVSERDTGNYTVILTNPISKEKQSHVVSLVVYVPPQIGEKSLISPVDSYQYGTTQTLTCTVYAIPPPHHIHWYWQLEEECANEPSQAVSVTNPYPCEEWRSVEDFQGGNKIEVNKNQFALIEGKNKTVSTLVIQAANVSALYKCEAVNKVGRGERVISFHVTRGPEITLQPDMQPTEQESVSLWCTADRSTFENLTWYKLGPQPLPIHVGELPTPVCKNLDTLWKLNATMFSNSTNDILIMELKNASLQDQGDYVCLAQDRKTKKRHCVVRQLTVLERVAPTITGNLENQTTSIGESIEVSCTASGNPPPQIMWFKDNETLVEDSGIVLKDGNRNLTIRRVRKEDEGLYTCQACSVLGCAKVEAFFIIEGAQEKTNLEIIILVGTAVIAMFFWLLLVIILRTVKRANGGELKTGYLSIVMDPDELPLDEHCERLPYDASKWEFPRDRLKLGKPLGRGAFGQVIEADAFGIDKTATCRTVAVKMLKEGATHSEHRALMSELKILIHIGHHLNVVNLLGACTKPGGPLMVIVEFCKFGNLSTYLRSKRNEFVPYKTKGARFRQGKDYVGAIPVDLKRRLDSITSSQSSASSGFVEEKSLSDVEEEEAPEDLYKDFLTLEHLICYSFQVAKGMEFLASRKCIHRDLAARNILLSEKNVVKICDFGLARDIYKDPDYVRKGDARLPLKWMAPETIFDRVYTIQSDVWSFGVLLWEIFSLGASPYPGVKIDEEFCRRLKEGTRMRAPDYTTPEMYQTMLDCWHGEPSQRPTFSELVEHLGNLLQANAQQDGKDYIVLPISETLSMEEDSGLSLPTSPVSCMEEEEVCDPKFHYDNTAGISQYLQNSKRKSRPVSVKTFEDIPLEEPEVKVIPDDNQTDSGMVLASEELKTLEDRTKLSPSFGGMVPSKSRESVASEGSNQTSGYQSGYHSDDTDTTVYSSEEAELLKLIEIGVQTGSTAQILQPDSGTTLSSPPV

In the case of `CC(C#N)c1cccc(C(=O)Nc2cccc(Oc3ccnc(-c4cnn(C)c4)c3)c2)c1` (racemic) [Example 48, (±)-3-(1-Cyanoethyl)-N-(3-(2-(1-methyl-1H-pyrazol-4-yl)pyridin-4-yloxy)phenyl)benzamide], the half-inhibitory concentration (IC50) in assay [1], in assay [2] and in assay [3] was greater than 10 µM throughout.
Regarding `O=C(Cc1ccc(F)c(C(F)(F)F)c1)Nc1cccc(Oc2ccnc(-c3nnco3)c2)c1` [Example 1, N-(3-(2-(1,3,4-Oxadiazol-2-yl)pyridin-4-yloxy)phenyl)-2-(4-fluoro-3-(trifluoromethyl)phenyl)acetamide], the IC50 in assay [1] is no more than 10 µM; in assay [2] it was greater than 10 µM; in assay [3], greater than 10 µM.
Take `CCOc1cc(C(=O)Nc2cccc(Oc3ccnc(-c4nnco4)c3)c2)cc(OCC)c1OCC` [Example 2, N-(3-(2-(1,3,4-Oxadiazol-2-yl)pyridin-4-yloxy)phenyl)-3,4,5-triethoxybenzamide]: the figures for the IC50 in assay [1], in assay [2] and in assay [3] were no more than 10 µM, greater than 10 µM and greater than 10 µM, respectively.
On to `O=C(Nc1cccc(Oc2ccnc(-c3nnco3)c2)c1)c1cccc(Oc2ccccc2)c1` [Example 4, N-(3-(2-(1,3,4-Oxadiazol-2-yl)pyridin-4-yloxy)phenyl)-3-phenoxybenzamide], for which the results for the IC50 in assay [1], in assay [2] and in assay [3] were no more than 10 µM, no more than 10 µM and greater than 10 µM, respectively.
As for `O=C(Nc1cccc(Oc2ccnc(-c3nnco3)c2)c1)c1ccc(Oc2ccccc2)cc1` [Example 5, N-(3-(2-(1,3,4-Oxadiazol-2-yl)pyridin-4-yloxy)phenyl)-4-phenoxybenzamide], the IC50 in assay [1] was no more than 10 µM; in assay [2] it was greater than 10 µM; in assay [3], greater than 10 µM.
Consider `O=C(Nc1cccc(Oc2ccnc(-c3nnco3)c2)c1)c1ccc2c(c1)OCCCO2` [Example 6, N-(3-(2-(1,3,4-Oxadiazol-2-yl)pyridin-4-yloxy)phenyl)-3,4-dihydro-2H-benzo[b][1,4]dioxepine-7-carboxamide], for which the results for the IC50 in assay [1], in assay [2] and in assay [3] were no more than 10 µM, greater than 10 µM and greater than 10 µM, respectively.
`CCOc1cc(OCC)cc(C(=O)Nc2cccc(Oc3ccnc(-c4nnco4)c3)c2)c1` [Example 7, N-(3-(2-(1,3,4-Oxadiazol-2-yl)pyridin-4-yloxy)phenyl)-3,5-diethoxybenzamide]: the IC50 in assay [1], in assay [2] and in assay [3] was greater than 10 µM each time.
Regarding `CCOc1ccc(C(=O)Nc2cccc(Oc3ccnc(-c4nnco4)c3)c2)cc1OCC` [Example 8, N-(3-(2-(1,3,4-Oxadiazol-2-yl)pyridin-4-yloxy)phenyl)-3,4-diethoxybenzamide], the IC50 is no more than 10 µM in assay [1], greater than 10 µM in assay [2] and greater than 10 µM in assay [3].
As for `COc1ccc(C(=O)Nc2cccc(Oc3ccnc(-c4nnco4)c3)c2)cc1OC1CCCC1` [Example 9, N-(3-(2-(1,3,4-Oxadiazol-2-yl)pyridin-4-yloxy)phenyl)-3-(cyclopentyloxy)-4-methoxybenzamide], the figures for the concentration for half-maximal inhibition (IC50) in assay [1], in assay [2] and in assay [3] were no more than 10 µM, no more than 10 µM and greater than 10 µM, respectively.
As for `CCCCOc1cc(C(=O)Nc2cccc(Oc3ccnc(-c4nnco4)c3)c2)ccc1OC` [Example 10, N-(3-(2-(1,3,4-Oxadiazol-2-yl)pyridin-4-yloxy)phenyl)-3-butoxy-4-methoxybenzamide], the IC50 in assay [1] was no more than 10 µM; in assay [2], no more than 10 µM; in assay [3], greater than 10 µM.
As to `O=C(Nc1cccc(Oc2ccnc(-c3nnco3)c2)c1)c1cccc(N2CCCCC2)c1` [Example 11, N-[3-(2-[1,3,4]Oxadiazol-2-yl-pyridin-4-yloxy)-phenyl]-3-piperidin-1-yl-benzamide], the IC50 in assay [1] is no more than 10 µM; in assay [2], greater than 10 µM; in assay [3], greater than 10 µM.
Regarding `O=C(Nc1cccc(Oc2ccnc(-c3nnco3)c2)c1)c1cccc(N2CCOCC2)c1` [Example 12, 3-Morpholin-4-yl-N-[3-(2-[1,3,4]oxadiazol-2-yl-pyridin-4-yloxy)-phenyl]-benzamide], the IC50 in assay [1] is no more than 10 µM; in assay [2], no more than 10 µM; in assay [3] it was greater than 10 µM.
In the case of `CCOc1cc(C(=O)Nc2cccc(Oc3ccnc(C(=O)NC)c3)c2)cc(OCC)c1OCC` [Example 13, N-Methyl-4-(3-(3,4,5-triethoxybenzamido)phenoxy)picolinamide], the IC50 in assay [1] is no more than 10 µM; in assay [2], no more than 10 µM; in assay [3], greater than 10 µM.
`CCOc1cc(OCC)cc(C(=O)Nc2cccc(Oc3ccnc(C(=O)NC)c3)c2)c1` [Example 14, 4-(3-(3,5-Diethoxybenzamido)phenoxy)-N-methylpicolinamide]: the IC50 in assay [1], in assay [2] and in assay [3] was greater than 10 µM throughout.
For `CNC(=O)c1cc(Oc2cccc(NC(=O)c3ccc(OC)c(OC4CCCC4)c3)c2)ccn1` [Example 15, 4-(3-(3-(Cyclopentyloxy)-4-methoxybenzamido)phenoxy)-N-methylpicolinamide], the IC50 in assay [1] is no more than 10 µM; in assay [2], no more than 10 µM; in assay [3] it was greater than 10 µM.
On to `CCOc1cc(OCC)cc(C(=O)Nc2cc(Oc3cc(-c4cnn(C)c4)ncn3)ccc2F)c1` [Example 17, 3,5-Diethoxy-N-(2-fluoro-5-(6-(1-methyl-1H-pyrazol-4-yl)pyrimidin-4-yloxy)phenyl)benzamide], for which the IC50 in assay [1], in assay [2] and in assay [3] was greater than 10 µM in each case.
In the case of `CCOc1cc(OCC)cc(C(=O)Nc2cccc(Oc3cc(-c4nc(C(F)(F)F)c[nH]4)ncn3)c2)c1` [Example 18, 3,5-Diethoxy-N-(3-(6-(4-(trifluoromethyl)-1H-imidazol-2-yl)pyrimidin-4-yloxy)phenyl)benzamide], the IC50 in assay [1] is no more than 10 µM; in assay [2], no more than 10 µM; in assay [3] it was greater than 10 µM.
As to `CCOc1cc(OCC)cc(C(=O)Nc2ccc(Oc3ccnc(-c4cnn(C)c4)c3)cc2)c1` [Example 20, 3,5-Diethoxy-N-(4-(2-(1-methyl-1H-pyrazol-4-yl)pyridin-4-yloxy)phenyl)benzamide], the IC50 in assay [1], in assay [2] and in assay [3] was no more than 10 µM each time.
With `Cn1cc(-c2cc(Oc3cccc(NC(=O)c4ccc(Cl)c(C(F)(F)F)c4)c3)ccn2)cn1` [Example 21, 4-Chloro-N-(3-(2-(1-methyl-1H-pyrazol-4-yl)pyridin-4-yloxy)phenyl)-3-(trifluoromethyl)benzamide], the half-maximal inhibitory concentration (IC50) in assay [1], in assay [2] and in assay [3] was greater than 10 µM in each case.
For `Cn1cc(-c2cc(Oc3ccc(NC(=O)c4ccc(Cl)c(C(F)(F)F)c4)cc3)ccn2)cn1` [Example 22, 4-Chloro-N-(4-(2-(1-methyl-1H-pyrazol-4-yl)pyridin-4-yloxy)phenyl)-3-(trifluoromethyl)benzamide], the 50% inhibitory concentration (IC50) in assay [1], in assay [2] and in assay [3] was no more than 10 µM each time.
As to `Cn1cc(-c2cc(Oc3cccc(NC(=O)c4ccc(OC(F)(F)F)cc4)c3)ncn2)cn1` [Example 23, N-(3-(6-(1-Methyl-1H-pyrazol-4-yl)pyrimidin-4-yloxy)phenyl)-4-(trifluoromethoxy)benzamide], the IC50 in assay [1], in assay [2] and in assay [3] was greater than 10 µM in each case.
Consider `CCOc1cc(OCC)cc(C(=O)Nc2cccc(Oc3cc(-c4cnn(C)c4)ncn3)c2)c1` [Example 24, 3,5-Diethoxy-N-(3-(6-(1-methyl-1H-pyrazol-4-yl)pyrimidin-4-yloxy)phenyl)benzamide], for which the half-inhibitory concentration (IC50) is greater than 10 µM in assay [1], no more than 10 µM in assay [2] and greater than 10 µM in assay [3].

One may read the IC50 as the concentration that gives 50% inhibition. A high value points to weaker potency in that assay.
